Source: ChEMBL document CHEMBL1147608, “SAR development of polycyclic guanine derivatives targeted to the discovery of a selective PDE5 inhibitor for treatment of erectile dysfunction” (Bioorg Med Chem Lett, 2004)

Legend:
[1] = target: T1, cGMP-specific 3',5'-cyclic phosphodiesterase (Homo sapiens, UniProt O76074)
[2] = target: Phosphodiesterase, PDE1/PDE5 (Homo sapiens) (UniProt O76074+P54750+Q01064+Q14123); test: Realtive inhibition of PDE1 and PDE5; format: protein assay
[3] = target: Phosphodiesterase 4 and 5 (PDE4 and PDE5) (Homo sapiens) (UniProt O76074+P27815+Q08499+Q07343+Q08493); test: Relative inhibition of PDE4 and PDE5; format: protein assay
[4] = target: Phosphodiesterase 2 and 5 (PDE2 and PDE5) (Homo sapiens) (UniProt O76074+O00408); test: Relative inhibition of PDE2 and PDE5; format: protein assay
[5] = target: Phosphodiesterase 3 and 5 (PDE3 and PDE5) (Homo sapiens) (UniProt O76074+Q14432+Q13370); test: Relative inhibition of PDE3 and PDE5; format: protein assay
[6] = target: T1, cGMP-specific 3',5'-cyclic phosphodiesterase; test: Inhibition of human phosphodiesterase 5 at 100 nM

| SMILES | IC50 [1] | also measured |
| --- | --- | --- |
| CCOc1nc2c(n1Cc1ccc(OC)cc1)C(=O)N(CC)C1=N[C@@H]3CCC[C@@H]3N12 | 18 nM |  |
| CCN1C(=O)c2c(nc(C(N)=O)n2Cc2ccc(OC)cc2)N2C1=N[C@@H]1CCC[C@@H]12 | 4 nM |  |
| CCN1C(=O)c2c(nc(OC)n2Cc2ccc(OC)c(Br)c2)N2C1=N[C@@H]1CCC[C@@H]12 | 2.8 nM |  |
| CCN1C(=O)c2c(nc(OC)n2Cc2ccc(OC)c(Cl)c2)N2C1=N[C@@H]1CCC[C@@H]12 | 5 nM |  |
| CCN1C(=O)c2[nH]c(Cc3ccccc3)nc2N2C1=N[C@@H]1CCC[C@@H]12 | 39 nM |  |
| CCN1C(=O)c2c(nc(C#Cc3ccccc3)n2Cc2ccc(OC)cc2)N2C1=N[C@@H]1CCC[C@@H]12 | 3.1 nM |  |
| CCN1C(=O)c2c(nc(OC)n2Cc2ccc(OC)c(Cl)c2)N2C[C@@H](Cc3ccccc3)N=C12 | 1.6 nM | Selectivity [2]: 4380; Selectivity [3]: 394; Selectivity [4]: 6250; Selectivity [5]: 6250 |
| CCN1C(=O)c2c(nc(S(=O)(=O)CC)n2Cc2ccc(OC)cc2)N2C1=N[C@@H]1CCC[C@@H]12 |  | inhibition [6]: 31% |
| CCN1C(=O)c2c(nc(C(N)=O)n2Cc2ccc(OC)c(Br)c2)N2C1=N[C@@H]1CCC[C@@H]12 | 1.5 nM |  |
| CCN1C(=O)c2c(nc(Cc3ccccc3)n2Cc2ccc(Cl)cc2)N2C1=N[C@@H]1CCC[C@@H]12 | 160 nM |  |
| CCN1C(=O)c2c(nc(C(F)(F)F)n2Cc2ccc(OC)cc2)N2C1=N[C@@H]1CCC[C@@H]12 | 48 nM |  |
| CCN1C(=O)c2c(nc(C(N)=O)n2Cc2ccc(O)cc2)N2C1=N[C@@H]1CCC[C@@H]12 | 2.1 nM |  |
| CCOc1nc2c(n1Cc1ccc(O)cc1)C(=O)N(CC)C1=N[C@@H]3CCC[C@@H]3N12 | 0.9 nM |  |
| CCN1C(=O)c2c(nc(Cc3ccccc3)n2Cc2ccccc2C)N2C1=N[C@@H]1CCC[C@@H]12 |  | inhibition [6]: 18% |
| CCN1C(=O)c2c(nc(OC)n2Cc2ccc(O)c(Br)c2)N2C[C@@H](Cc3ccccc3)N=C12 | 1.3 nM | Selectivity [2]: 7690; Selectivity [3]: 3770; Selectivity [4]: 7690; Selectivity [5]: 7690 |
| CCN1C(=O)c2c(nc(OC)n2Cc2ccc(OC)c(C#N)c2)N2C[C@@H](Cc3ccccc3)N=C12 | 11 nM | Selectivity [2]: 536; Selectivity [3]: 464; Selectivity [4]: 909; Selectivity [5]: 909 |
| CCN1C(=O)c2c(nc(Cc3ccccc3)n2Cc2ccc3ccccc3c2)N2C1=N[C@@H]1CCC[C@@H]12 |  | inhibition [6]: 32% |
| CCN1C(=O)c2c(nc(Cc3ccccc3)n2Cc2ccc(C)cc2)N2C1=N[C@@H]1CCC[C@@H]12 | 40 nM |  |
| CCOc1nc2c(n1Cc1ccc(O)c(Cl)c1)C(=O)N(CC)C1=N[C@@H]3CCC[C@@H]3N12 | 2.1 nM |  |

| SMILES | IC50 [1] | also measured |
| --- | --- | --- |
| CCN1C(=O)c2c(nc(Cc3ccccc3)n2Cc2ccccc2)N2C1=N[C@@H]1CCC[C@@H]12 | 130 nM |  |
| CCN1C(=O)c2c(nc(Cc3ccccc3)n2Cc2cccc(OC)c2)N2C1=N[C@@H]1CCC[C@@H]12 |  | inhibition [6]: 14% |
| CCN1C(=O)c2c(nc(C(N)=O)n2Cc2ccc(O)c(Cl)c2)N2C[C@@H](Cc3ccccc3)N=C12 | 3 nM | Selectivity [2]: 2600; Selectivity [3]: 1730; Selectivity [4]: 3330; Selectivity [5]: 3330 |
| CCN1C(=O)c2c(nc(Cc3ccccc3)n2Cc2ccc(OC)c(Cl)c2)N2C1=N[C@@H]1CCC[C@@H]12 | 58 nM |  |
| CCN1C(=O)c2c(nc(C(=O)OC)n2Cc2ccc(OC)cc2)N2C1=N[C@@H]1CCC[C@@H]12 | 6.8 nM |  |
| CCN1C(=O)c2c(nc(C(=O)NC)n2Cc2ccc(O)c(Cl)c2)N2C1=N[C@@H]1CCC[C@@H]12 | 1.3 nM |  |
| CCN1C(=O)c2c(nc(N)n2Cc2ccc(O)cc2)N2C1=N[C@@H]1CCC[C@@H]12 | 22 nM |  |
| CCN1C(=O)c2c(ncn2Cc2ccc(O)c(Br)c2)N2C1=N[C@@H]1CCC[C@@H]12 | 6.3 nM |  |
| CCN1C(=O)c2c(nc(C(N)=O)n2Cc2ccc(OC)c(Cl)c2)N2C[C@@H](Cc3ccccc3)N=C12 | 2.8 nM |  |
| CCN1C(=O)c2c(nc(C(N)=O)n2Cc2ccc(O)c(Br)c2)N2C1=N[C@@H]1CCC[C@@H]12 | 0.9 nM |  |
| CCOc1nc2c(n1Cc1ccc(OC)c(Br)c1)C(=O)N(CC)C1=N[C@@H]3CCC[C@@H]3N12 | 5.4 nM |  |
| CCN1C(=O)c2c(nc(OC)n2Cc2ccc(OC)c(Br)c2)N2C[C@@H](Cc3ccccc3)N=C12 | 2.2 nM | Selectivity [2]: 4090; Selectivity [3]: 418; Selectivity [4]: 4540; Selectivity [5]: 4540 |
| CCSc1nc2c(n1Cc1ccc(O)cc1)C(=O)N(CC)C1=N[C@@H]3CCC[C@@H]3N12 | 1.8 nM |  |
| CCN1C(=O)c2c(nc(Cc3ccccc3)n2Cc2cccc(Br)c2)N2C1=N[C@@H]1CCC[C@@H]12 |  | inhibition [6]: 33% |
| CCN1C(=O)c2c(nc(C#Cc3ccccc3)n2Cc2ccccc2)N2C1=N[C@@H]1CCC[C@@H]12 | 8 nM |  |
| CCN1C(=O)c2c(nc(N(C)C)n2Cc2ccc(OC)cc2)N2C1=N[C@@H]1CCC[C@@H]12 |  | inhibition [6]: 27% |
| CCN1C(=O)c2c(nc(OCc3ccccc3)n2Cc2ccc(O)c(Cl)c2)N2C[C@@H](Cc3ccccc3)N=C12 | 2.1 nM | Selectivity [2]: 4760; Selectivity [3]: 2170; Selectivity [4]: 4760; Selectivity [5]: 4760 |
| CCN1C(=O)c2c(ncn2Cc2ccc(OC)cc2)N2C1=N[C@@H]1CCC[C@@H]12 | 55 nM |  |
| CCN1C(=O)c2c(nc(Cc3ccccc3)n2Cc2ccc(C)c(Cl)c2)N2C1=N[C@@H]1CCC[C@@H]12 |  | inhibition [6]: 27% |

| SMILES | IC50 [1] | also measured |
| --- | --- | --- |
| CCN1C(=O)c2c(nc(Cc3ccccc3)n2Cc2ccc(N)cc2)N2C1=N[C@@H]1CCC[C@@H]12 | 550 nM |  |
| CCN1C(=O)c2c(nc(C#Cc3ccccc3)n2Cc2ccc(Cl)cc2)N2C1=N[C@@H]1CCC[C@@H]12 | 5 nM |  |
| CCN1C(=O)c2c(nc(Cc3ccccc3)n2Cc2cccc(Cl)c2)N2C1=N[C@@H]1CCC[C@@H]12 |  | inhibition [6]: 26% |
| CCN1C(=O)c2c(nc(Cc3ccccc3)n2Cc2cccc(C)c2)N2C1=N[C@@H]1CCC[C@@H]12 |  | inhibition [6]: 26% |
| CCSc1nc2c(n1Cc1ccc(OC)cc1)C(=O)N(CC)C1=N[C@@H]3CCC[C@@H]3N12 | 13 nM |  |
| CCN1C(=O)c2c(nc(OC)n2Cc2ccc(O)c(Br)c2)N2C1=N[C@@H]1CCC[C@@H]12 | 1.6 nM |  |
| CCN1C(=O)c2c(nc(OC)n2Cc2ccc(O)c(C#N)c2)N2C[C@@H](Cc3ccccc3)N=C12 | 43 nM |  |
| CCN1C(=O)c2c(nc(OC)n2Cc2ccc(O)c(Cl)c2)N2C1=N[C@@H]1CCC[C@@H]12 | 2 nM |  |
| CCN1C(=O)c2c(ncn2Cc2ccc(OC)c(Br)c2)N2C1=N[C@@H]1CCC[C@@H]12 | 6.5 nM |  |
| CCN1C(=O)c2c(nc(Cc3ccccc3)n2Cc2ccc3c(c2)OCO3)N2C1=N[C@@H]1CCC[C@@H]12 | 46 nM |  |
| CCN1C(=O)c2c(nc(C(N)=O)n2Cc2ccc(O)c(Cl)c2)N2C1=N[C@@H]1CCC[C@@H]12 | 1.1 nM |  |
| CCN1C(=O)c2c(nc(Cc3ccccc3)n2Cc2ccc([N+](=O)[O-])cc2)N2C1=N[C@@H]1CCC[C@@H]12 |  | inhibition [6]: 8% |
| CCN1C(=O)c2c(nc(C(F)(F)F)n2Cc2ccc(O)cc2)N2C1=N[C@@H]1CCC[C@@H]12 | 7 nM |  |
| CCN1C(=O)c2c(nc(N=[N+]=[N-])n2Cc2ccc(O)cc2)N2C1=N[C@@H]1CCC[C@@H]12 | 0.61 nM |  |
| CCN1C(=O)c2c(nc(Cc3ccccc3)n2Cc2ccc(OC)cc2)N2C1=N[C@@H]1CCC[C@@H]12 | 20 nM |  |
| CCN1C(=O)c2c(nc(C#Cc3ccccc3)n2Cc2ccc(O)cc2)N2C1=N[C@@H]1CCC[C@@H]12 | 0.3 nM |  |
| CCN1C(=O)c2c(nc(C(=O)NC)n2Cc2ccc(OC)c(Cl)c2)N2C1=N[C@@H]1CCC[C@@H]12 | 2.3 nM |  |
| CCN1C(=O)c2c(nc(C#N)n2Cc2ccc(OC)cc2)N2C1=N[C@@H]1CCC[C@@H]12 | 6.3 nM |  |
| CCOc1nc2c(n1Cc1ccc(OC)c(Cl)c1)C(=O)N(CC)C1=N[C@@H]3CCC[C@@H]3N12 | 6.5 nM |  |
